Where two headings read alike, the source gives them in different places.

For test [1], the target named is T1, BTK enzyme (full-length BTK, hBTK) (Homo sapiens, UniProt Q06187).
T1 construct: recombinant protein from baculovirus-transfected Sf9 cells: full-length BTK, 6HIS-tag cleaved; 6HIS (cleaved yes); made in house; host or cells: baculovirus-transfected Sf9 cells
The experiment in a line: Btk enzyme activity assay (LANCE TR-FRET). The format is biochemical. As to conditions: 50 pM hBTK, 25 μM ATP, 60 minute compound and enzyme incubation, read-out: BTK binding IC50. The method, then:
BTK enzymatic activity was determined with the LANCE (Lanthanide Chelate Excite) TR-FRET (Time-resolved fluorescence resonance energy transfer) assay. […] To each well of a black non-binding surface Corning 384-well microplate (Corning Catalog #3820), 5 nL of compound (2000 fold dilution in final assay volume of 10 μL) was dispensed, followed by the addition of 7.5 μL of 1× kinase buffer (50 mM Hepes 7.5, 10 mM MgCl2, 0.01% Brij-35, 1 mM EGTA, 0.05% BSA & 1 mM DTT) containing 5.09 pg/μL (66.67 pM) of BTK enzyme (recombinant protein from baculovirus-transfected Sf9 cells: full-length BTK, 6HIS-tag cleaved). Following a 60 minute compound and enzyme incubation, each reaction was initiated by the addition of 2.5 μL 1× kinase buffer containing 8 μM biotinylated “A5” peptide (Biotin-[…]-NH2) (SEQ.ID.NO.: 1), and 100 μM ATP. The final reaction in each well of 10 μL consists of 50 pM hBTK, 2 μM biotin-A5-peptide, and 25 μM ATP. Phosphorylation reactions were allowed to proceed for 120 minutes. Reactions were immediately quenched by the addition of 20 uL of 1× quench buffer (15 mM EDTA, 25 mM Hepes 7.3, and 0.1% Triton X-100) containing detection reagents (0.626 nM of LANCE-Eu-W1024-anti-phosphoTyrosine antibody, PerkinElmer and 86.8 nM of Streptavidin-conjugated Dylight 650, Dyomics/ThermoFisher Scientific). After 60 minutes incubation with detection reagents, reaction plates were read on a PerkinElmer EnVision plate reader using standard TR-FRET protocol. Briefly, excitation of donor molecules (Eu-chelate:anti-phospho-antibody) with a laser light source at 337 nm produces energy that can be transferred to Dylight-650 acceptor molecules if this donor:acceptor pair is within close proximity. Fluorescence intensity at both 665 nm (acceptor) and 615 nm (donor) are measured and a TR-FRET ratio calculated for each well (acceptor intensity/donor intensity). IC50 values were determined by 4 parameter robust fit of TR-FRET ratio values vs. (Log10) compound concentrations.
The following Table 2 provides specific IC50 values for all the examples. The IC50 values set forth below were determined according to Assay method described above.

In test [2] the test system is adenosine uptake into HeLa cells. The experiment in a line: [3H]Adenosine uptake assay in HeLa cells. Type of test: cell-based. Conditions: 60 minutes uptake, read-out: ADU inhibition IC50 (adenosine uptake inhibition potency). The method, then: Compounds were also screened in an adenosine uptake functional cellular assay using the protocol described below.
Adenosine uptake activity was determined by monitoring the accumulation of tritiated adenosine into HeLa cells (ATCC catalog # CCL-2) using a PMT-based radiometric detection instrument. In this assay, the potency (IC50) of each compound was determined from a ten point (1:3 serial dilution; final compound concentration range in assay from 10 μM to 0.032 nM) titration curve using the following outlined procedure. To each well of a 96-well CytoStar-T scintillating microplate (Perkin Elmer Catalog # RPNQ0163), 25 000 HeLa cells in 100 μL of growth medium comprising: Minimum Essential Media (Life Technologies Catalog # 11095-080)+10% (v/v) foetal bovine serum (FBS; Sigma Aldrich Catalog # F2442) was added. These cells were incubated overnight at 37° C. in a humidified atmosphere with 5% (v/v) CO2. After this time the growth medium was removed and replaced with 40 μL assay medium comprising: Hanks balanced salts solution (HBSS; Thermo Fisher Catalog # SH30268.01)+5% (v/v) FBS. Compound stock solutions in DMSO were diluted in assay medium to 2.5× final compound concentration maintaining a constant DMSO concentration of 0.25% (v/v). 40 μL of compound in assay medium was dispensed into individual wells of the Cytostar-T plates and the plates were incubated for 30 minutes under ambient laboratory conditions. Following this incubation, 20 μL of 500 nM [^3H]adenosine (American Radiolabeled Chemicals Inc. Catalog # ART0287) in assay medium was added and incubated for a further 60 minutes under ambient laboratory conditions. The amount of radiolabel accumulation was then determined using a Perkin Elmer Topcount NXT microplate reader. In brief, HeLa cells adhere to the bottom of the Cytostar-T plate, uptake of [^3H]adenosine into these cells brings the radiolabel into sufficient proximity to excite the scintillant in the base of the plates. These events are captured by single PMT, time-resolved coincidence counting. IC50 values were determined by 4 parameter robust fit of counts per second values vs. (Log10) compound concentrations.

T1 sequence (Q06187 whole entry): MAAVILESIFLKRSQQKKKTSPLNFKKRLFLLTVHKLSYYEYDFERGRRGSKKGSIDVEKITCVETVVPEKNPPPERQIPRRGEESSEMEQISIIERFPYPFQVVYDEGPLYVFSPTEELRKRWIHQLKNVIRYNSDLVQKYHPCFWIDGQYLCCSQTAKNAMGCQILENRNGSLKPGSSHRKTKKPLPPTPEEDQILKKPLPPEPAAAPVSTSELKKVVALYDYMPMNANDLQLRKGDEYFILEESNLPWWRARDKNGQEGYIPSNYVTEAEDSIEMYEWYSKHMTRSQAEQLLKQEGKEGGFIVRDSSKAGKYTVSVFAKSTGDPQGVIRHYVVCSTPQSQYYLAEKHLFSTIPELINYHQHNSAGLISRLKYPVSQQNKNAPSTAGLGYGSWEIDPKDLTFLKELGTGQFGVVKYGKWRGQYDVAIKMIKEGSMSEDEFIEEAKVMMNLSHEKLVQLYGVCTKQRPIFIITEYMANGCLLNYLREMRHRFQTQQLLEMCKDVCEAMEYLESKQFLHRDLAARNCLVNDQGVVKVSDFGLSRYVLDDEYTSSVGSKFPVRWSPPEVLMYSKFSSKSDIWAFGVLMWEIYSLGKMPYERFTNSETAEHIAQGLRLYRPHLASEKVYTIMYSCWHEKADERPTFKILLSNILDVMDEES

With `CCOc1cc(C(=O)Nc2cc(C(F)(F)F)n(C)n2)c(F)cc1-c1nc([C@@H]2CC[C@@H]3N(C2)C(=O)C2(CC2)C3(F)F)n2ccnc(N)c12` [Compound 33, 4-{8-amino-3-[(6′R,8a′S)-1′,1′-difluoro-3′-oxohexahydrospiro[cyclopropane-1,2′-indolizin]-6′-yl]imidazo[1,5-a]pyrazin-1-yl}-5-ethoxy-2-fluoro-N-[1-methyl-5-(trifluoromethyl)-1H-pyrazol-3-yl]benzamide], the concentration for half-maximal inhibition (IC50) in test [1] was 9.04 nM; in test [2] (Homo sapiens, HeLa), 1440 nM.

In the case of `CCOc1cc(C(=O)Nc2cc(C(F)(F)F)n(C)n2)c(Cl)cc1-c1nc([C@@H]2CC[C@@H]3N(C2)C(=O)C2(CC2)C3(F)F)n2ccnc(N)c12` [Compound 34, 4-{8-amino-3-[(6′R,8a′S)-1′,1′-difluoro-3′-oxohexahydrospiro[cyclopropane-1,2′-indolizin]-6′-yl]imidazo[1,5-a]pyrazin-1-yl}-2-chloro-5-ethoxy-N-[1-methyl-5-(trifluoromethyl)-1H-pyrazol-3-yl]benzamide], the IC50 is 6.95 nM in test [1] and 1580 nM in test [2] (Homo sapiens, HeLa).

In the case of `CCOc1cc(C(=O)Nc2cc(C(F)(F)F)ccn2)ccc1-c1nc([C@H]2CN3C(=O)[C@H]4CCCN4C[C@@H]3CO2)n2ccnc(N)c12` [Compound 35, 4-{8-amino-3-[(3R,6aR,11aR)-6-oxooctahydro-1H,6H-pyrrolo [1′,2′:4,5]pyrazino[2,1-c][1,4]oxazin-3-yl]imidazo[1,5-a]pyrazin-1-yl}-3-ethoxy-N-[4-(trifluoromethyl)pyridin-2-yl] benzamide], the IC50 in test [1] was 1.25 nM; in test [2] (Homo sapiens, HeLa) it was 1340 nM.

Consider `CCOc1cc(C(=O)Nc2cc(C(F)(F)F)ccn2)ccc1-c1nc([C@H]2CN3C(=O)[C@@H]4CCCN4C[C@@H]3CO2)n2ccnc(N)c12` [Compound 36, 4-{8-amino-3-[(3R,6aS,11aR)-6-oxooctahydro-1H,6H-pyrrolo[1′,2′:4,5]pyrazino[2,1-c][1,4]oxazin-3-yl]imidazo[1,5-a]pyrazin-1-yl}-3-ethoxy-N-[4-(trifluoromethyl)pyridin-2-yl]benzamide], for which the IC50 worked out at 1 nM in test [1] and 1250 nM in test [2] (Homo sapiens, HeLa).

With `CCOc1cc(C(=O)Nc2cc(C#N)ccn2)cc(F)c1-c1nc(C2CCC3N(C2)C(=O)CC32CC2)n2c(Cl)cnc(N)c12` (stereo not shown) [Compound 37, 4-[8-amino-5-chloro-3-(3′-oxohexahydro-5′H-spiro[cyclopropane-1,1′-indolizin]-6′-yl)imidazo[1,5-a]pyrazin-1-yl]-N-(4-cyanopyridin-2-yl)-3-ethoxy-5-fluorobenzamide], the concentration for half-maximal inhibition (IC50) in test [1] was 0.186 nM; in test [2] (Homo sapiens, HeLa) it was 375 nM.

In the case of `CCOc1cc(C(=O)Nc2cc(C#N)ccn2)cc(F)c1-c1nc(C2CCC3N(C2)C(=O)CC32CC2)n2ccnc(N)c12` (stereo not shown) [Compound 38, 4-[8-amino-3-(3′-oxohexahydro-5′H-spiro[cyclopropane-1,1′-indolizin]-6′-yl)imidazo[1,5-a]pyrazin-1-yl]-N-(4-cyanopyridin-2-yl)-3-ethoxy-5-fluorobenzamide], the IC50 in test [1] came to 0.222 nM; in test [2] (Homo sapiens, HeLa) it was 765 nM.

`CCOc1cc(C(=O)Nc2cc(C(F)(F)F)ccn2)ccc1-c1nc(C2CCC3N(C2)C(=O)CNC32CC2)n2ccnc(N)c12` (stereo not shown) [Compound 39, 4-[8-amino-3-(4′-oxohexahydro-2′H,6′H-spiro[cyclopropane-1,1′-pyrido[1,2-a]pyrazin]-7′-yl)imidazol[1,5-a]pyrazin-1-yl]-3-ethoxy-N-[4-(trifluoromethyl)pyridin-2-yl]benzamide]: the half-inhibitory concentration (IC50) was found to be 0.322 nM in test [1] and 1350 nM in test [2] (Homo sapiens, HeLa).

As for `Nc1nccn2c([C@@H]3CC[C@H]4CNC5(CC5)C(=O)N4C3)nc(-c3ccc(C(=O)Nc4cc(C(F)(F)F)ccn4)cc3)c12` [Compound 40, 4-{8-amino-3-[(7′R,9a′S)-4′-oxohexahydro-2′H-spiro[cyclopropane-1,3′-pyrido[1,2-a]pyrazin]-7′-yl]imidazo[1,5-a]pyrazin-1-yl}-N-[4-(trifluoromethyl)pyridin-2-yl]benzamide], the half-inhibitory concentration (IC50) in test [1] worked out at 0.173 nM; in test [2] (Homo sapiens, HeLa), 168 nM.

Take `COc1cc(C(=O)Nc2cc(C(F)(F)F)ccn2)ccc1-c1nc([C@@H]2CC[C@H]3CNC4(CC4)C(=O)N3C2)n2ccnc(N)c12` [Compound 41, 4-{8-amino-3-[(7′R,9a′S)-4′-oxohexahydro-2′H-spiro[cyclopropane-1,3′-pyrido[1,2-a]pyrazin]-7′-yl]imidazo[1,5-a]pyrazin-1-yl}-3-methoxy-N-[4-(trifluoromethyl)pyridin-2-yl]benzamide]: the IC50 in test [1] was 0.252 nM; in test [2] (Homo sapiens, HeLa), 1340 nM.

In the case of `CCOc1cc(C(=O)Nc2cc(C(F)(F)F)ccn2)ccc1-c1nc(C2CCC3N(C2)C(=O)CNC32CC2)n2ccnc(N)c12` (stereo not shown) [Compound 42, 4-[8-amino-3-(4′-oxohexahydro-2′H,6′H-spiro[cyclopropane-1,1′-pyrido[1,2-a]pyrazin]-7′-yl)imidazo[1,5-a]pyrazin-1-yl]-3-ethoxy-N-[4-(trifluoromethyl)pyridin-2-yl]benzamide], the IC50 in test [1] worked out at 0.231 nM; in test [2], 2220 nM.

On to `CCOc1cc(C(=O)Nc2cc(C(F)(F)F)ccn2)ccc1-c1nc(C2CCC3N(C2)C(=O)CNC32CC2)n2ccnc(N)c12` (stereo not shown) [Compound 43, 4-[8-amino-3-(4′-oxohexahydro-2′H,6′H-spiro[cyclopropane-1,1′-pyrido[1,2-a]pyrazin]-7′-yl)imidazo[1,5-a]pyrazin-1-yl]-3-ethoxy-N-[4-(trifluoromethyl)pyridin-2-yl]benzamide], for which the 50% inhibitory concentration (IC50) came out at 5.61 nM in test [1] and 1190 nM in test [2].

`CCOc1cc(C(=O)Nc2cc(C(F)(F)F)ccn2)ccc1-c1nc([C@@H]2CC[C@H]3CN(CC)C4(CC4)C(=O)N3C2)n2ccnc(N)c12` [Compound 44, 4-{8-amino-3-[(7′R,9a′S)-2′-ethyl-4′-oxohexahydro-2′H-spiro[cyclopropane-1,3′-pyrido[1,2-a]pyrazin]-7′-yl]imidazo[1,5-a]pyrazin-1-yl}-3-ethoxy-N-[4-(trifluoromethyl)pyridin-2-yl]benzamide]: the concentration for half-maximal inhibition (IC50) in test [1] was 0.249 nM; in test [2] (Homo sapiens, HeLa), 785 nM.

As to `CCOc1cc(C(=O)Nc2cc(C(F)(F)F)ccn2)ccc1-c1nc([C@H]2CN3C(=O)C4(CC4)NC[C@@H]3CO2)n2ccnc(N)c12` [Compound 45, 4-{8-amino-3-[(3′R,9a′R)-6′-oxohexahydrospiro[cyclopropane-1,7′-pyrazino[2,1-c][1,4]oxazin]-3′-yl]imidazo[1,5-a]pyrazin-1-yl}-3-ethoxy-N-[4-(trifluoromethyl)pyridin-2-yl]benzamide], the IC50 in test [1] is 0.241 nM; in test [2] (Homo sapiens, HeLa), 1580 nM.

As for `COc1cc(C(=O)Nc2cc(C(F)(F)F)ccn2)ccc1-c1nc([C@H]2CC[C@@H]3CC4(CC4)C(=O)N3C2)n2ccnc(N)c12` [Compound 47, 4-{8-amino-3-[(6′S,8a′R)-3′-oxohexahydrospiro[cyclopropane-1,2′-indolizin]-6′-yl]imidazo[1,5-a]pyrazin-1-yl}-3-methoxy-N-[4-(trifluoromethyl)pyridin-2-yl]benzamide], the half-maximal inhibitory concentration (IC50) came out at 0.528 nM in test [1] and 524 nM in test [2] (Homo sapiens, HeLa).

The IC50 is the concentration at which inhibition is half-maximal.
